According to ChEMBL document CHEMBL2413072, “Synthesis and in vitro anticancer studies of novel C-2 arylidene congeners of lantadenes” (2013):

Columns and labels:
Format in all cases: functional
CAKI-1 = test: Growth inhibition of human CAKI-1 cells assessed as cell growth at 10^-8 M by sulforhodamine B assay; details: read-out: Activity
NCI-H226 = test: Growth inhibition of human NCI-H226 cells assessed as cell growth at 10^-6 M by sulforhodamine B assay; details: read-out: Activity
SR = test: Growth inhibition of human SR cells assessed as cell growth at 10^-7 M by sulforhodamine B assay; details: read-out: Activity
SK-MEL-28 = test: Growth inhibition of human SK-MEL-28 cells by sulforhodamine B assay
SK-MEL-2 [1] = test: Growth inhibition of human SK-MEL-2 cells assessed as cell growth at 10^-4 M by sulforhodamine B assay; details: read-out: Activity
BT-549 = test: Growth inhibition of human BT549 cells assessed as cell growth at 10^-7 M by sulforhodamine B assay; details: read-out: Activity
HOP-62 = test: Growth inhibition of human HOP62 cells assessed as cell growth at 10^-4 M by sulforhodamine B assay; details: read-out: Activity
SK-OV-3 [2] = test: Growth inhibition of human SKOV3 cells assessed as cell growth at 10^-4 M by sulforhodamine B assay; details: read-out: Activity
HT-29 [3] = test: Growth inhibition of human HT-29 cells by sulforhodamine B assay
MCF7 = test: Growth inhibition of human MCF7 cells by sulforhodamine B assay
LOX IMVI = test: Growth inhibition of human LOXIMVI cells assessed as cell growth at 10^-7 M by sulforhodamine B assay; details: read-out: Activity
TK-10 = test: Growth inhibition of human TK10 cells by sulforhodamine B assay
DU-145 = test: Growth inhibition of human DU145 cells by sulforhodamine B assay
MDA-MB-468 [4] = test: Growth inhibition of human MDA-MB-468 cells assessed as cell growth at 10^-4 M by sulforhodamine B assay; details: read-out: Activity
OVCAR-3 = test: Growth inhibition of human OVCAR3 cells assessed as cell growth at 10^-8 M by sulforhodamine B assay; details: read-out: Activity
OVCAR-4 [5] = test: Growth inhibition of human OVCAR4 cells by sulforhodamine B assay
HT-29 [6] = test: Growth inhibition of human HT-29 cells assessed as cell growth at 10^-7 M by sulforhodamine B assay; details: read-out: Activity
SW-620 = test: Growth inhibition of human SW620 cells by sulforhodamine B assay
OVCAR-4 [7] = test: Growth inhibition of human OVCAR4 cells assessed as cell growth at 10^-6 M by sulforhodamine B assay; details: read-out: Activity
HCT-116 [8] = test: Growth inhibition of human HCT116 cells assessed as cell growth at 10^-6 M by sulforhodamine B assay; details: read-out: Activity
HCT-116 [9] = test: Growth inhibition of human HCT116 cells assessed as cell growth at 10^-4 M by sulforhodamine B assay; details: read-out: Activity
OVCAR-4 [10] = test: Growth inhibition of human OVCAR4 cells assessed as cell growth at 10^-7 M by sulforhodamine B assay; details: read-out: Activity
K562 [11] = test: Growth inhibition of human K562 cells assessed as cell growth at 10^-4 M by sulforhodamine B assay; details: read-out: Activity
M14 = test: Growth inhibition of human M14 cells by sulforhodamine B assay
A498 [12] = test: Growth inhibition of human A498 cells assessed as cell growth at 10^-7 M by sulforhodamine B assay; details: read-out: Activity
ACHN [13] = test: Growth inhibition of human ACHN cells assessed as cell growth at 10^-8 M by sulforhodamine B assay; details: read-out: Activity
SK-MEL-5 = test: Growth inhibition of human SK-MEL-5 cells by sulforhodamine B assay
SK-OV-3 [14] = test: Growth inhibition of human SKOV3 cells assessed as cell growth at 10^-6 M by sulforhodamine B assay; details: read-out: Activity
CCRF-CEM = test: Growth inhibition of human CCRF-CEM cells assessed as cell growth at 10^-8 M by sulforhodamine B assay; details: read-out: Activity
A498 [15] = test: Growth inhibition of human A498 cells assessed as cell growth at 10^-8 M by sulforhodamine B assay; details: read-out: Activity
HOP-92 = test: Growth inhibition of human HOP92 cells assessed as cell growth at 10^-4 M by sulforhodamine B assay; details: read-out: Activity
MDA-MB-435 = test: Growth inhibition of human MDA-MB-435 cells assessed as cell growth at 10^-8 M by sulforhodamine B assay; details: read-out: Activity
SF-268 = test: Growth inhibition of human SF268 cells assessed as cell growth at 10^-4 M by sulforhodamine B assay; details: read-out: Activity
MDA-MB-468 [16] = test: Growth inhibition of human MDA-MB-468 cells assessed as cell growth at 10^-7 M by sulforhodamine B assay; details: read-out: Activity
K562 [17] = test: Growth inhibition of human K562 cells by sulforhodamine B assay
COLO 205 = test: Growth inhibition of human COLO205 cells assessed as cell growth at 10^-6 M by sulforhodamine B assay; details: read-out: Activity
ACHN [18] = test: Growth inhibition of human ACHN cells assessed as cell growth at 10^-7 M by sulforhodamine B assay; details: read-out: Activity
SK-MEL-2 [19] = test: Growth inhibition of human SK-MEL-2 cells by sulforhodamine B assay
[20] = read-out: LC50 (the source's name)
[21] = read-out: pLC50 (the source's name) (converted)

Compound `CC1(C)C[C@@H](O)[C@]2(C(=O)O)CC[C@]3(C)C(=CC[C@@H]4[C@@]5(C)C/C(=C\C=C\c6ccccc6)C(=O)C(C)(C)[C@@H]5CC[C@]43C)[C@@H]2C1` has a growth at 0.01 µM (CAKI-1) of 94%, a growth at 1 µM (NCI-H226) of 83% and a growth at 0.1 µM (SR) of 100%. The GI50 (SK-MEL-28; read-out: GI50) was 4.37 µM, the CC50 (SK-MEL-28; [20]) was 51.8 µM and the TGI (SK-MEL-28; read-out: TGI) was 17 µM. For the same compound, the GI50 (SK-MEL-28; read-out: pGI50 (converted)) was 4.37 µM, the CC50 (SK-MEL-28; [21]) was 51.3 µM and the TGI (SK-MEL-28; read-out: pTGI (converted)) was 17 µM. The growth at 100 µM (SK-MEL-2 [1]) was -72%, the growth at 0.1 µM (BT-549) was 103% and the growth at 100 µM (HOP-62) was -57%. It also gave a growth at 100 µM (SK-OV-3 [2]) of -84%, a GI50 (HT-29 [3]; read-out: GI50) of 2.68 µM and an LC50 (50% cell kill) (HT-29 [3]; read-out: LC50) of 32.9 µM. It also gave a TGI (HT-29 [3]; read-out: TGI) of 7.37 µM, a GI50 (HT-29 [3]; read-out: pGI50 (converted)) of 2.69 µM and an LC50 (50% cell kill) (HT-29 [3]; read-out: pLC50 (converted)) of 33.1 µM. For the same compound, the TGI (HT-29 [3]; read-out: pTGI (converted)) was 7.41 µM, the GI50 (MCF7; read-out: GI50) was 3.23 µM and the CC50 (MCF7; [20]) was 56.9 µM. The TGI (MCF7; read-out: TGI) was 12.3 µM, the GI50 (MCF7; read-out: pGI50 (converted)) was 3.24 µM and the CC50 (MCF7; [21]) was 57.5 µM. It also gave a TGI (MCF7; read-out: pTGI (converted)) of 12.3 µM, a growth at 0.1 µM (LOX IMVI) of 95% and a GI50 (TK-10; read-out: GI50) of 3.71 µM. It also gave a CC50 (TK-10; [20]) of 42.4 µM, a TGI (TK-10; read-out: TGI) of 12.8 µM and a GI50 (TK-10; read-out: pGI50 (converted)) of 3.72 µM. It also gave a CC50 (TK-10; [21]) of 42.7 µM, a TGI (TK-10; read-out: pTGI (converted)) of 12.9 µM and a GI50 (DU-145; read-out: GI50) of 4.23 µM. The CC50 (DU-145; [20]) was 41.7 µM, the TGI (DU-145; read-out: TGI) was 14.9 µM and the GI50 (DU-145; read-out: pGI50 (converted)) was 4.27 µM. The CC50 (DU-145; [21]) was 41.7 µM, the TGI (DU-145; read-out: pTGI (converted)) was 14.8 µM and the growth at 100 µM (MDA-MB-468 [4]) was -95%. It also gave a growth at 0.01 µM (OVCAR-3) of 102%, a GI50 (OVCAR-4 [5]; read-out: GI50) of 3.85 µM and a CC50 (OVCAR-4 [5]; [20]) of 40.2 µM. The TGI (OVCAR-4 [5]; read-out: TGI) was 15.4 µM, the GI50 (OVCAR-4 [5]; read-out: pGI50 (converted)) was 3.89 µM and the CC50 (OVCAR-4 [5]; [21]) was 39.8 µM. It also gave a TGI (OVCAR-4 [5]; read-out: pTGI (converted)) of 15.5 µM, a growth at 0.1 µM (HT-29 [6]) of 100% and a GI50 (SW-620; read-out: GI50) of 3.39 µM. For the same compound, the CC50 (SW-620; [20]) was 78.8 µM, the TGI (SW-620; read-out: TGI) was 15.4 µM and the GI50 (SW-620; read-out: pGI50 (converted)) was 3.39 µM. For the same compound, the CC50 (SW-620; [21]) was 79.4 µM, the TGI (SW-620; read-out: pTGI (converted)) was 15.5 µM and the growth at 1 µM (OVCAR-4 [7]) was 89%. The growth at 1 µM (HCT-116 [8]) was 90%, the growth at 100 µM (HCT-116 [9]) was -55% and the growth at 0.1 µM (OVCAR-4 [10]) was 96%. The growth at 100 µM (K562 [11]) was 1%, the GI50 (M14; read-out: GI50) was 3.74 µM and the CC50 (M14; [20]) was 52 µM. The TGI (M14; read-out: TGI) was 15.8 µM, the GI50 (M14; read-out: pGI50 (converted)) was 3.72 µM and the CC50 (M14; [21]) was 52.5 µM. It also gave a TGI (M14; read-out: pTGI (converted)) of 15.8 µM, a growth at 0.1 µM (A498 [12]) of 78% and a growth at 0.01 µM (ACHN [13]) of 97%. The GI50 (SK-MEL-5; read-out: GI50) was 1.76 µM, the CC50 (SK-MEL-5; [20]) was 6.11 µM and the TGI (SK-MEL-5; read-out: TGI) was 3.28 µM. It also gave a GI50 (SK-MEL-5; read-out: pGI50 (converted)) of 1.74 µM, a CC50 (SK-MEL-5; [21]) of 6.17 µM and a TGI (SK-MEL-5; read-out: pTGI (converted)) of 3.31 µM. For the same compound, the growth at 1 µM (SK-OV-3 [14]) was 96%, the growth at 0.01 µM (CCRF-CEM) was 95% and the growth at 0.01 µM (A498 [15]) was 82%. It also gave a growth at 100 µM (HOP-92) of -76%, a growth at 0.01 µM (MDA-MB-435) of 98% and a growth at 100 µM (SF-268) of -83%. The growth at 0.1 µM (MDA-MB-468 [16]) was 96%, the GI50 (K562 [17]; read-out: GI50) was 3.74 µM and the LC50 (K562 [17]; read-out: LC50) was greater than 100 µM. For the same compound, the TGI (K562 [17]; read-out: TGI) was greater than 100 µM, the GI50 (K562 [17]; read-out: pGI50 (converted)) was 3.72 µM and the LC50 (K562 [17]; read-out: pLC50 (converted)) was greater than 100 µM. It also gave a TGI (K562 [17]; read-out: pTGI (converted)) greater than 100 µM, a growth at 1 µM (COLO 205) of 108% and a growth at 0.1 µM (ACHN [18]) of 98%. The GI50 (SK-MEL-2 [19]; read-out: GI50) was 2.35 µM, the CC50 (SK-MEL-2 [19]; [20]) was 26.3 µM and the TGI (SK-MEL-2 [19]; read-out: TGI) was 5.57 µM. It also gave a GI50 (SK-MEL-2 [19]; read-out: pGI50 (converted)) of 2.34 µM, a CC50 (SK-MEL-2 [19]; [21]) of 26.3 µM and a TGI (SK-MEL-2 [19]; read-out: pTGI (converted)) of 5.62 µM.
